Data: PubChem BioAssay (NCI)
Values joined by “and” are separate entries in the source; they are usually repeats but may differ in a detail not shown here. Identical values can stand only once.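 Dose response: 5 concentrations. Exposure: 48 h. Format: 96-well plates. Endpoint: linear interpolation; highest concentration if not reached. Here, GI50 denotes the concentration required for 50% inhibition of growth. TGI: total growth inhibition.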

Experiments:
Experiment in all cases: DTP human tumour cell line panel, 48 h
A498 renal = test system: A498 renal
TK-10 renal = test system: TK-10 renal
HL-60(TB) leukemia = test system: HL-60(TB) leukemia
SN12C renal = test system: SN12C renal
OVCAR-3 ovarian = test system: OVCAR-3 ovarian
SF-539 CNS = test system: SF-539 CNS
SW-620 colon = test system: SW-620 colon
SK-MEL-28 melanoma = test system: SK-MEL-28 melanoma
SNB-19 CNS = test system: SNB-19 CNS
COLO 205 colon = test system: COLO 205 colon

Clc1ccc(-n2nnc(C3=NCCN3)c2-c2ccccc2)cc1
TGI (A498 renal): > 100 µM
TGI (TK-10 renal): > 100 µM
TGI (HL-60(TB) leukemia): > 100 µM
TGI (SN12C renal): > 100 µM
TGI (OVCAR-3 ovarian): > 100 µM
TGI (SF-539 CNS): > 100 µM
TGI (SW-620 colon): > 100 µM
TGI (SK-MEL-28 melanoma): > 100 µM
TGI (SNB-19 CNS): > 100 µM
TGI (COLO 205 colon): > 100 µM

COC(=O)C1=C(C)N(NC(N)=O)C2(N)N(NC(N)=O)C(C)=C(C(=O)OC)C12C(=O)OC (stereo not given)
TGI (A498 renal): > 100 µM
TGI (TK-10 renal): > 100 µM
TGI (HL-60(TB) leukemia): > 100 µM
TGI (SN12C renal): > 100 µM
TGI (OVCAR-3 ovarian): > 10 µM
TGI (SF-539 CNS): > 100 µM
TGI (SW-620 colon): > 100 µM
TGI (SK-MEL-28 melanoma): > 100 µM
TGI (SNB-19 CNS): > 100 µM
TGI (COLO 205 colon): > 100 µM

N#Cc1c(C(=O)c2ccccc2)cnn1-c1ccccc1
GI50 (A498 renal): > 25 µM
TGI (A498 renal): > 25 µM
GI50 (TK-10 renal): > 25 µM
TGI (TK-10 renal): > 25 µM
GI50 (HL-60(TB) leukemia): > 25 µM
TGI (HL-60(TB) leukemia): > 25 µM
GI50 (SN12C renal): > 25 µM
TGI (SN12C renal): > 25 µM
GI50 (OVCAR-3 ovarian): > 25 µM
TGI (OVCAR-3 ovarian): > 25 µM
GI50 (SF-539 CNS): > 25 µM
TGI (SF-539 CNS): > 25 µM
GI50 (SW-620 colon): > 25 µM
TGI (SW-620 colon): > 25 µM
GI50 (SK-MEL-28 melanoma): > 25 µM
TGI (SK-MEL-28 melanoma): > 25 µM
GI50 (SNB-19 CNS): > 25 µM
TGI (SNB-19 CNS): > 25 µM
GI50 (COLO 205 colon): > 25 µM
TGI (COLO 205 colon): > 25 µM

Clc1ccc(Cl)c2[s+]snc12
TGI (A498 renal): > 100 µM
TGI (TK-10 renal): > 100 µM
TGI (HL-60(TB) leukemia): > 100 µM
TGI (SN12C renal): > 100 µM
TGI (OVCAR-3 ovarian): > 100 µM
TGI (SF-539 CNS): > 100 µM
TGI (SW-620 colon): > 51.9 µM
TGI (SK-MEL-28 melanoma): > 100 µM
TGI (SNB-19 CNS): > 100 µM
TGI (COLO 205 colon): > 60.1 µM

CC12CCC3C(CC=C4CC(O)CCC43C)C1C/C(=C\N1CCCC1)C2=O (stereo not given)
GI50 (A498 renal): > 100 µM
TGI (A498 renal): > 100 µM
GI50 (TK-10 renal): > 100 µM
TGI (TK-10 renal): > 100 µM
GI50 (HL-60(TB) leukemia): 75.3 µM
TGI (HL-60(TB) leukemia): > 100 µM
GI50 (SN12C renal): 85 µM
TGI (SN12C renal): > 100 µM
GI50 (OVCAR-3 ovarian): 42.6 µM
TGI (OVCAR-3 ovarian): > 100 µM
GI50 (SF-539 CNS): > 100 µM
TGI (SF-539 CNS): > 100 µM
GI50 (SW-620 colon): > 100 µM
TGI (SW-620 colon): > 100 µM
GI50 (SK-MEL-28 melanoma): > 100 µM
TGI (SK-MEL-28 melanoma): > 100 µM
GI50 (SNB-19 CNS): > 100 µM
TGI (SNB-19 CNS): > 100 µM
GI50 (COLO 205 colon): > 100 µM
TGI (COLO 205 colon): > 100 µM

CC(=O)O[C@H]1C(=O)[C@@]2(C)C(C(OC(=O)c3ccccc3)[C@]3(O)CC(OC(=O)[C@H](OC(=O)CCC(=O)O)C(NC(=O)c4ccccc4)c4ccccc4)C(C)=C1C3(C)C)C1(OC(C)=O)COC1C[C@@H]2OC(=O)CCC(=O)O (stereo not given in full)
GI50 (A498 renal): 0.0997 µM
TGI (A498 renal): 5.65 µM
TGI (TK-10 renal): > 100 µM
TGI (HL-60(TB) leukemia): 0.868 µM
TGI (SN12C renal): > 100 µM
GI50 (OVCAR-3 ovarian): 1.89 µM
TGI (OVCAR-3 ovarian): > 54.2 µM
TGI (SF-539 CNS): 2.72 µM
TGI (SW-620 colon): > 100 µM
TGI (SK-MEL-28 melanoma): 86.9 µM
TGI (SNB-19 CNS): > 100 µM
GI50 (COLO 205 colon): 0.865 µM
TGI (COLO 205 colon): 18.6 µM

C/C(O)=C(\N=O)C(=O)NCCc1ccccc1
TGI (A498 renal): > 100 µM
TGI (TK-10 renal): > 79.2 µM
TGI (HL-60(TB) leukemia): > 100 µM
TGI (SN12C renal): > 100 µM
TGI (OVCAR-3 ovarian): > 100 µM
TGI (SF-539 CNS): > 100 µM
TGI (SW-620 colon): > 55.2 µM
TGI (SK-MEL-28 melanoma): > 100 µM
TGI (SNB-19 CNS): > 100 µM
TGI (COLO 205 colon): > 66.9 µM

COc1c(O)c2c(c3cc(C(=O)N4CCc5c4c(O)c(OC)c4[nH]c(C(=O)N6CC7CC78C6=CC(=O)c6[nH]cc(C)c68)cc54)[nH]c13)CCN2C(N)=O (stereo not given)
TGI (A498 renal): 6.94 nM and 247 nM and 0.0354 µg/mL
GI50 (TK-10 renal): 0.0259 µg/mL
TGI (TK-10 renal): 222 nM and 0.0678 µg/mL
GI50 (HL-60(TB) leukemia): 0.007 µg/mL
TGI (HL-60(TB) leukemia): 0.0439 µg/mL
TGI (SN12C renal): 5.75 nM and 3.41 µM and 0.103 µg/mL
TGI (OVCAR-3 ovarian): 48.6 nM and > 100 µM and 0.0456 µg/mL
TGI (SF-539 CNS): 12.1 nM and 897 nM and 0.007 µg/mL
TGI (SW-620 colon): 3.46 nM and 456 nM and 0.0038 µg/mL
GI50 (SK-MEL-28 melanoma): 0.354 µM
TGI (SNB-19 CNS): 76.8 nM and 3.69 µM and 0.185 µg/mL
TGI (COLO 205 colon): 3.83 nM and 5.18 µM and 0.00504 µg/mL

COc1ccccc1-[n+]1cc(-c2ccc(-c3ccccc3)cc2)n2c1CCCCC2
GI50 (A498 renal): 0.615 µM
TGI (A498 renal): 7.5 µM
GI50 (TK-10 renal): 0.638 µM
TGI (TK-10 renal): 13 µM
GI50 (HL-60(TB) leukemia): 0.0429 µM
TGI (HL-60(TB) leukemia): 1.01 µM
GI50 (SN12C renal): 0.288 µM
TGI (SN12C renal): 10.5 µM
GI50 (OVCAR-3 ovarian): 0.233 µM
TGI (OVCAR-3 ovarian): 12.4 µM
GI50 (SF-539 CNS): 0.348 µM
TGI (SF-539 CNS): 13.2 µM
GI50 (SW-620 colon): 0.587 µM
TGI (SW-620 colon): 12.7 µM
GI50 (SK-MEL-28 melanoma): 0.384 µM
TGI (SK-MEL-28 melanoma): 11.2 µM
GI50 (SNB-19 CNS): 0.261 µM
TGI (SNB-19 CNS): 12.1 µM
GI50 (COLO 205 colon): 0.236 µM
TGI (COLO 205 colon): 2.62 µM

Cc1ccc2c(c1)nc(C(=O)c1ccco1)c(C(F)(F)F)[n+]2[O-]
GI50 (A498 renal): 1.66 µM
TGI (A498 renal): 3.06 µM
GI50 (TK-10 renal): > 100 µM
TGI (TK-10 renal): > 100 µM
GI50 (HL-60(TB) leukemia): 51.4 µM
TGI (HL-60(TB) leukemia): > 100 µM
GI50 (SN12C renal): > 100 µM
TGI (SN12C renal): > 100 µM
GI50 (OVCAR-3 ovarian): > 100 µM
TGI (OVCAR-3 ovarian): > 100 µM
GI50 (SF-539 CNS): > 100 µM
TGI (SF-539 CNS): > 100 µM
GI50 (SW-620 colon): 1.75 µM
TGI (SW-620 colon): 3.33 µM
GI50 (SK-MEL-28 melanoma): > 100 µM
TGI (SK-MEL-28 melanoma): > 100 µM
GI50 (SNB-19 CNS): > 100 µM
TGI (SNB-19 CNS): > 100 µM
GI50 (COLO 205 colon): > 100 µM
TGI (COLO 205 colon): > 100 µM

c1ccc(Cc2nc3ccc(Nc4ncnc5ccccc45)cc3[nH]2)cc1
GI50 (A498 renal): 9.41 µM
TGI (A498 renal): > 25 µM
GI50 (TK-10 renal): 5.85 µM
TGI (TK-10 renal): > 25 µM
GI50 (HL-60(TB) leukemia): 20 µM
TGI (HL-60(TB) leukemia): > 25 µM
GI50 (SN12C renal): 11.1 µM
TGI (SN12C renal): > 25 µM
GI50 (OVCAR-3 ovarian): > 25 µM
TGI (OVCAR-3 ovarian): > 25 µM
GI50 (SF-539 CNS): > 25 µM
TGI (SF-539 CNS): > 25 µM
GI50 (SW-620 colon): > 25 µM
TGI (SW-620 colon): > 25 µM
GI50 (SK-MEL-28 melanoma): > 25 µM
TGI (SK-MEL-28 melanoma): > 25 µM
GI50 (SNB-19 CNS): > 25 µM
TGI (SNB-19 CNS): > 25 µM
GI50 (COLO 205 colon): > 25 µM
TGI (COLO 205 colon): > 25 µM

O=C(O)c1ccc2c(c1)Cc1cc([N+](=O)[O-])ccc1-2
TGI (A498 renal): > 100 µM
TGI (TK-10 renal): > 100 µM
TGI (HL-60(TB) leukemia): > 100 µM
TGI (SN12C renal): > 100 µM
TGI (OVCAR-3 ovarian): > 100 µM
TGI (SF-539 CNS): > 100 µM
TGI (SW-620 colon): > 100 µM
TGI (SK-MEL-28 melanoma): > 100 µM
TGI (SNB-19 CNS): > 100 µM
TGI (COLO 205 colon): > 100 µM

CC(=O)Nc1ccc(/C=C/[N+](=O)[O-])cc1
TGI (A498 renal): 15.2 µM
TGI (TK-10 renal): 6.89 µM
TGI (HL-60(TB) leukemia): 6.44 µM
TGI (SN12C renal): 9.8 µM
TGI (OVCAR-3 ovarian): 10.7 µM
TGI (SF-539 CNS): 6.35 µM
TGI (SW-620 colon): 11 µM
TGI (SK-MEL-28 melanoma): 4.13 µM
TGI (SNB-19 CNS): 20.5 µM
TGI (COLO 205 colon): 7.28 µM

Cc1c(N=Nc2ccc([N+](=O)[O-])cc2)nc2scc(-c3ccccc3)n12
TGI (A498 renal): > 100 µM
TGI (TK-10 renal): > 100 µM
TGI (HL-60(TB) leukemia): 49.2 µM
TGI (SN12C renal): > 100 µM
TGI (OVCAR-3 ovarian): > 100 µM
TGI (SF-539 CNS): > 100 µM
TGI (SW-620 colon): > 100 µM
TGI (SK-MEL-28 melanoma): > 100 µM
TGI (SNB-19 CNS): > 100 µM
TGI (COLO 205 colon): > 100 µM

CCN1C2=NC(=O)N(C)C(=O)C2(Cl)C(C(SC)S(=O)(=O)c2ccc(C)cc2)c2ccccc21 (stereo not given)
TGI (A498 renal): > 100 µM
TGI (TK-10 renal): > 100 µM
TGI (HL-60(TB) leukemia): 19.7 µM
TGI (SN12C renal): > 100 µM
TGI (OVCAR-3 ovarian): 80.2 µM
TGI (SF-539 CNS): > 100 µM
TGI (SW-620 colon): > 100 µM
TGI (SK-MEL-28 melanoma): 67.9 µM
TGI (SNB-19 CNS): > 100 µM
TGI (COLO 205 colon): 99.2 µM

O=C(O)c1cc2ccccc2c(O)c1O
TGI (A498 renal): 51.7 µM
TGI (TK-10 renal): 40.7 µM
TGI (HL-60(TB) leukemia): > 74.3 µM
TGI (SN12C renal): 31.5 µM
TGI (OVCAR-3 ovarian): 28.9 µM
TGI (SF-539 CNS): 38.1 µM
TGI (SW-620 colon): 34.8 µM
TGI (SK-MEL-28 melanoma): 18.1 µM
TGI (SNB-19 CNS): 35.8 µM
TGI (COLO 205 colon): 31.4 µM
